From ChEMBL document CHEMBL3638749, “Bicyclic thiazole compounds” (2015)

Molecular target: TRAF2 and NCK-interacting protein kinase (Homo sapiens, UniProt Q9UKE5)
Assay: Kinase Assay: The kinase assays were conducted in a 20 μl volume using 384-well plates (Greiner). The reaction mixture consists of compound or vehicle (1% DMSO), 0.08 ng/μl TNIK_N, 1 μM FITC-labeled substrate peptides, including ε-aminocaproic acid and 7 amino acids (described as SEQ ID NO. 3 in "Kinase assay of TEST EXAMPLE 1" of WO 2010/064111(P.31)), 20 mM Hepes, pH 7.5, 0.01% Triton X-100, 5 mM MgCl2, 25 μM ATP and 2 mM DTT. As blank, TNIK_N was excluded from the reaction mixture of vehicle (1% DMSO). The kinase reaction was carried out 1 h at room temperature and terminated by addition of 60 μl of the termination buffer (127 mM Hepes, pH 7.5, 26.7 mM EDTA, 0.01% Triton X-100, 1% DMSO and 0.13% Coating Reagent 3 (Caliper Life Sciences)). The amount of unphosphorylated and phosphorylated FITC-labeled substrate peptides was detected by Mobility Shift Micro Fluidic Technology (Caliper LC3000 System, Caliper Life Sciences).

Chain of TRAF2 and NCK-interacting protein kinase (Q9UKE5 whole entry): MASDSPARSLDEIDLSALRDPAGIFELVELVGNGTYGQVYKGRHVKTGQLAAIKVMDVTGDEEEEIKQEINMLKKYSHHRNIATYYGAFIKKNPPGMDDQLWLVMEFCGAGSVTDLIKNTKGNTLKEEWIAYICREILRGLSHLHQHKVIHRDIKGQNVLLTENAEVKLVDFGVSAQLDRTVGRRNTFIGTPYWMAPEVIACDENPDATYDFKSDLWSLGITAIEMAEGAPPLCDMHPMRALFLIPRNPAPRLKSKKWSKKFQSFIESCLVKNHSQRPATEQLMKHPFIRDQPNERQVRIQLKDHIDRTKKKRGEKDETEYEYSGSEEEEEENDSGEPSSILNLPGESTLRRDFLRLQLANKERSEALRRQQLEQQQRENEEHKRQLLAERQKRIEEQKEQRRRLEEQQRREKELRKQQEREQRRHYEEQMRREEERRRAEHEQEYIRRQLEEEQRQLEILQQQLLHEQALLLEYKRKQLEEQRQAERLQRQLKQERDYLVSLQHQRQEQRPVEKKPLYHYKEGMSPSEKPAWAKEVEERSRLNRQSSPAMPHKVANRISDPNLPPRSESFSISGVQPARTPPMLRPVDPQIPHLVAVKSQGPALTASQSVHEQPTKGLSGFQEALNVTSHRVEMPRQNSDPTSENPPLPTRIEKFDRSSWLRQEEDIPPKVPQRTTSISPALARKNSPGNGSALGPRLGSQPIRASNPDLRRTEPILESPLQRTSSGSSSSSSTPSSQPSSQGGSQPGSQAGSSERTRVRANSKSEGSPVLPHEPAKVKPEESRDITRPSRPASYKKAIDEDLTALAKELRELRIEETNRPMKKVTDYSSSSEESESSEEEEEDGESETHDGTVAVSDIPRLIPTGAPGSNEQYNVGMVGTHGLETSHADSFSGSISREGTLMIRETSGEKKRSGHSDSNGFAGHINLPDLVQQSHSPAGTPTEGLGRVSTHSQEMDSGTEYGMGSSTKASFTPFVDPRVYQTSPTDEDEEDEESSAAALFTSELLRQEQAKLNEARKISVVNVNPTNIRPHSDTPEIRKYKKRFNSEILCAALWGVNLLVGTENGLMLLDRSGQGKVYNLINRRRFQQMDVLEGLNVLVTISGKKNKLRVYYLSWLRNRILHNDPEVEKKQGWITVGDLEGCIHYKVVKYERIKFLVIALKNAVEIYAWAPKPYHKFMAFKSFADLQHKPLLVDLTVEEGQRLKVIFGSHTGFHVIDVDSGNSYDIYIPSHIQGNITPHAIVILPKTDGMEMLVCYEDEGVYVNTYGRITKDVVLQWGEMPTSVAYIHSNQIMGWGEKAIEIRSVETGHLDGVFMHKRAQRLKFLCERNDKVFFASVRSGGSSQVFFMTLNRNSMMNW

| Structure (SMILES) | IC50 |
| --- | --- |
| NC(=O)c1nc(Nc2ccc3cc(F)ccc3c2)sc1NC(=O)c1ccc(NCCO)cc1 | 22.5 nM |
| CC#CC(=O)Nc1sc(Nc2ccc3ccccc3c2)nc1C(N)=O | 4.4 nM |
| NC(=O)c1nc(Nc2ccc3ccccc3c2)sc1NC(=O)c1ccc(Cn2ccnc2[N+](=O)[O-])cc1 | 9.5 nM |
